According to patent publication US8314077B2 (priority 1996, dated 2012):
Like-named read-outs stand apart in the source and are kept apart here.

What was measured:
[1] = in vivo; cited from earlier work
57 cancer cell lines = assay type: cell-based; settings: for potency relative to Taxol: many cell lines tested; for pattern of activity versus Taxol (NCI statistical analysis): statistical analysis designed by the NCI
Protocol: (§1) Conjugates 1 and 2 were sent to the United States National Cancer Institute (NCI) for screening in the NCI's anticancer screening program. The conjugates were provided in ethanol (approximately 40 mg analog/2 ml ethanol). The conjugates were sealed in vials under argon to avoid exposure of the conjugates to oxygen because the conjugates were believed to be sensitive to oxygen. Instructions were provided to store at 4° C. and to open the vials only when ready for immediate experimental use. Instructions also were provided to use the ethanol solutions containing the conjugates directly or to dissolve the analogs further in DMSO (dimethylsulfoxide) at appropriate concentrations, with vortexing if necessary for adequate dispersal.
(§2) The activities of conjugates 1 and 2 were tested against 57 cancer cell lines. […] To understand the data, reference is made to the guides provided by the NCI, excerpted as follows:
(§3) The Calculated Measurement of Effect: Percentage Growth (PG)
(§4) The measured effect of the compound on a cell line is currently calculated according to one or the other of the following two expressions:
(§5) If (Mean ODtext−Mean ODtzero)≧0, then PG=100×(Mean ODtest−Mean ODtzero)/(Mean ODctrl−Mean Odtzero)
(§6) If (Mean ODtest−Mean ODtzero)<0, then PG=100×(Mean ODtest−Mean Odtzero)/Mean Odtzero
(§7) Where: • Mean ODtzero=The average of optical density measurements of SRB-derived color just before exposure of cells to the test compound. • Mean ODtest=The average of optical density measurements of SRB-derived color after 48 hours exposure of cells to the test compound. • Mean ODctrl=The average of optical density measurements of SRB-derived color after 48 hours with no exposure of cells to the test compound.
(§8) Experimental data was collected against each cell line. . . . . Each concentration is expressed as the log10 (molar or μg/ml) . . . . The response parameters GI50, TGI, and LC50 are interpolated values representing the concentrations at which the PG is +50, 0, and −50, respectively. Sometimes these response parameters cannot be obtained by interpolation. If, for instance, all of the PGs in a given row exceed +50, then none of the three parameters can be obtained by interpolation. In such a case, the value given for each response parameter is the highest concentration tested. This practice is extended similarly to the other possible situations where a response parameter cannot be obtained by interpolation.
(§9) The dose-response curve page of the data package is created by plotting the PGs against the log10 of the corresponding concentration for every cell line. The cell line curves are grouped by subpanel. Horizontal lines are provided at the PG values of +50, 0, and −50. The concentrations corresponding to points where the curves cross these lines are the GI50, TGI and LC50, respectively.

CNSSF 268 = experiment: cells; assay type: cell-based
Protocol: as §1, with “The conjugates were sealed in vials under argon to avoid exposure of the conjugates to oxygen because the conjugates were believed to be sensitive to oxygen.” left out
as §2, §3, §4, §5, §6, §7, §8, §9

CNS SF-539 = experiment: cells; assay type: cell-based; settings: for TGI: concentration at which PG is 0, CNS SF-539
Protocol: as §1, with “The conjugates were sealed in vials under argon to avoid exposure of the conjugates to oxygen because the conjugates were believed to be sensitive to oxygen.” left out
as §2, §3, §4, §5, §6, §7, §8, §9

[2] = system: leukemia cancer cell lines; assay type: cell-based; settings: six lines for the conjugates, four lines for Taxol; FIGS. 1, 10 and 19
Protocol: as §1, with “The conjugates were sealed in vials under argon to avoid exposure of the conjugates to oxygen because the conjugates were believed to be sensitive to oxygen.” left out
as §2, §3, §4, §5, §6, §7, §8, §9

[3] = system: non-small cell lung cancer lines H522 and H460; assay type: cell-based
Protocol: as §1, with “The conjugates were sealed in vials under argon to avoid exposure of the conjugates to oxygen because the conjugates were believed to be sensitive to oxygen.” left out
as §2, §3, §4, §5, §6, §7, §8, §9

[4] = system: MDA-N and MDA-MB-435 breast cancer cell lines; assay type: cell-based; settings: all concentrations tested
Protocol: as §1, with “The conjugates were sealed in vials under argon to avoid exposure of the conjugates to oxygen because the conjugates were believed to be sensitive to oxygen.” left out
as §2, §3, §4, §5, §6, §7, §8, §9

CNSU251 = assay type: cell-based
Protocol: as §1, with “The conjugates were sealed in vials under argon to avoid exposure of the conjugates to oxygen because the conjugates were believed to be sensitive to oxygen.” left out
as §2, §3, §4, §5, §6, §7, §8, §9

SMILES | entry into the brain [1] | average GI50 across all cell lines tested (57 cancer cell lines; average over cell lines, −10 used where Taxol was active at −10.0) | GI50 (CNSSF 268; concentration at which PG is +50, 48 hours exposure, CNSSF 268) | TGI (CNS SF-539; 48 hours exposure) | GI50 (CNS SF-539; concentration at which PG is +50, 48 hours exposure, CNS SF 539) | effectiveness against leukemia cell lines [2] | difference in effectiveness, H522 versus H460, at TGI [3] | potency relative to Taxol (57 cancer cell lines) | pattern of activity versus Taxol (NCI statistical analysis) (57 cancer cell lines) | GI50 (CNSSF 268; concentration at which PG is +50, 48 hours exposure, CNSSF 268, read-out: GI50 (converted)) [µM] | GI50 (CNS SF-539; CNSSF-539, concentration at which PG is +50, 48 hours exposure, CNS SF 539, read-out: GI50 (converted)) [µM] | relative activity toward MDA-N versus MDA-MB-435 [4] | effectiveness at TGI against CNSU251 relative to other CNS cell lines (CNSU251) | relative effectiveness against H460 versus H522 at TGI [3] | GI50 (CNSSF 268; 48 h) [µM] | GI50 (CNS SF-539; CNSSF-539, 48 h) [µM]
CC(=O)O[C@H]1C(=O)[C@@]2(C)[C@H]([C@H](OC(=O)c3ccccc3)[C@]3(O)C[C@H](OC(=O)[C@H](O)[C@@H](NC(=O)c4ccccc4)c4ccccc4)C(C)=C1C3(C)C)[C@]1(OC(C)=O)CO[C@@H]1C[C@@H]2O [Taxol, paclitaxel, reference compound] | does not get into the brain | at least −9.19 log10 (molar or μg/ml) | less than −10.0 log10 (molar or μg/ml) | −6.95 log10 (molar or μg/ml) | −7.52 log10 (molar or μg/ml) | somewhat effective | about 3 logs |  |  |  |  |  |  |  |  | 
CC/C=C\C/C=C\C/C=C\C/C=C\C/C=C\C/C=C\CCC(=O)OC(C(=O)OC1C[C@@]2(O)[C@@H](OC(=O)c3ccccc3)[C@@H]3[C@]4(OC(C)=O)CO[C@@H]4C[C@H](O)[C@@]3(C)C(=O)[C@H](OC(C)=O)C(=C1C)C2(C)C)[C@@H](NC(=O)c1ccccc1)c1ccccc1 (stereo partly shown) [conjugate 1] |  |  |  | −5.13 log10 (molar or μg/ml) |  | not very effective |  | one thousand to ten thousand times less potent than Taxol | statistically different | 4.37 | 0.603 | more effective against MDA-N than MDA-MB-435 | most effective | slightly more effective against H460 than H522 |  | 
CC/C=C\C/C=C\C/C=C\C/C=C\C/C=C\C/C=C\CCC(=O)O[C@H]1C[C@H]2OC[C@@]2(OC(C)=O)[C@H]2[C@H](OC(=O)c3ccccc3)[C@]3(O)CC(OC(=O)C(O)[C@@H](NC(=O)c4ccccc4)c4ccccc4)C(C)=C([C@@H](OC(C)=O)C(=O)[C@]12C)C3(C)C (stereo partly shown) [conjugate 2] |  |  |  | −5.53 log10 (molar or μg/ml) |  | not very effective |  | one thousand to ten thousand times less potent than Taxol | statistically different |  |  | more effective against MDA-N than MDA-MB-435 | very effective | slightly more effective against H460 than H522 | 5.25 | 2.75
